We go through seven compounds from patent US20260014264A1, “SPECIFIC TOPOISOMERASE INHIBITOR, USE AS ANTIBODY DRUG CONJUGATE, AND PREPARATION METHOD THEREFOR” (BIOBRICS LIFE SCIENCE (NANTONG) CO., LTD., priority 2022, published 2026).

The assay deals with human non-small cell lung cancer cell line A549. As to the kind of experiment: In vitro cytotoxicity test of released camptothecin analogs (Luminescent Cell Viability Assay). In kind it is cell-based. On the procedure: Stable transfection of high expression Her2, high expression SK-BR-3 and BT-474 human breast cancer cells, NCI-N87 human gastric cancer cells and human non-small cell lung cancer cell line A549 were selected as the cell lines for in vitro activity detection in this experiment, and the killing dose and effect of different antibody coupled drugs on cells were observed. Preliminary selection of plate density for each cell type: 2×10^3 cells/well, followed by cytotoxicity assay after 16-24 h; Next, the antibody coupled drug prepared in Example 2 was tested with a final concentration set at 5000 nM as the starting concentration, and a series of 10 concentrations (4-10 fold dilution) were designed for 5000-0.006 nM. […] The IC50 was calculated after reading the fluorescence data.
The linkers in the present invention are all cleavable linkers. Therefore, the released camptothecin analogs were first subjected to in vitro cytotoxic activity testing, and the results are shown in the table below.

Where [1] appears, read: A549 cells, 120 hours, chemiluminescence cell viability, read-out: IC50 (A549).
Setting [2] is: A549, 120 h, read-out: IC50 (A549, nM).

Molecules are shown by their SMILES. Read-outs that look alike come from different tables or passages of the source.

A word on the IC50: it is the point on the concentration scale where inhibition reaches its midpoint. On to `CC[C@@]1(O)C(=O)OCc2c1cc1n(c2=O)Cc2c-1nc1cc(F)c(NC(=O)C(O)C3CC3)c3c1c2CCC3` (stereo partly shown) [Compound A3-FD], for which, under setting [1], the IC50 was found to be 5.5 nM. Consider `CC[C@@]1(O)C(=O)OCc2c1cc1n(c2=O)Cc2c-1nc1ccc(NC(=O)CO)c3c1c2CCC3` [Compound A16-FD], for which, under setting [1], the IC50 worked out at 79.5 nM.

Consider `CC[C@@]1(O)C(=O)OCc2c1cc1n(c2=O)Cc2c-1nc1cc(F)c(C)c3c1c2[C@@H](NC(=O)CO)CC3` [Dxd, reference compound], for which the IC50 under setting [2] stood at 45.1 nM.

In the case of `CC[C@@]1(O)C(=O)OCc2c1cc1n(c2=O)Cc2c-1nc1cc(F)c(NC(=O)CO)c3c1c2CCC3` [Compound A1-FD], the 50% inhibitory concentration (IC50) under setting [2] was found to be 69.1 nM. For `CC[C@@]1(O)C(=O)OCc2c1cc1n(c2=O)Cc2c-1nc1cc(F)c(NC(=O)C3CC3O)c3c1c2CCC3` (stereo partly shown) [Compound A9-FD], under setting [1], the IC50 worked out at 25.2 nM.

In the case of `CC[C@@]1(O)C(=O)OCc2c1cc1n(c2=O)Cc2c-1nc1cc(F)c(NC(=O)C3CC(O)C3)c3c1c2CCC3` (stereo partly shown) [Compound A11-FD], the IC50 under setting [1] was determined as 2.1 nM. As to `CC[C@@]1(O)C(=O)OCc2c1cc1n(c2=O)Cc2c-1nc1cc(F)c(NC(=O)C(C)O)c3c1c2CCC3` (stereo partly shown) [Compound A2-FD], the IC50 under setting [1] is 0.53 nM.
